This note sets out measurements from the NIST ThermoML archive (doi:10.1016/j.jct.2004.11.012).

For this series the following is noted: 101.33 kPa, Liquid.

± gives the expanded uncertainty stated by the source.

Broadly, the mass density is mass per unit of volume.

Regarding `COC(C)(C)C` [2-methoxy-2-methylpropane], the mass density is, setting by setting: (298.15 K) 735.356 ± 0.27 kg/m3; (308.15 K) 724.85 ± 0.28 kg/m3.
In the case of `C=C(C)C(=O)O` [2-methyl-2-propenoic acid], the mass density (298.15 K) is 1009.13 ± 0.13 kg/m3 and the mass density (308.15 K) is recorded as 998.64 ± 0.13 kg/m3.
Taken in the same sequence, the figures for `C=CCOC(=O)C(=C)C` [2-propenyl 2-methylpropenoate] were 927.997 ± 0.17 kg/m3 and 917.423 ± 0.18 kg/m3.
The like results for `C=C(C)C(=O)OCCCC` [butyl 2-methyl-2-propenoate] were, in that order, 890.438 ± 0.28 kg/m3 and 880.857 ± 0.28 kg/m3.
The like results for `C=COC(C)=O` [vinyl acetate] were, in that order, 925.775 ± 0.16 kg/m3 and 913.134 ± 0.16 kg/m3.
